{
  "source": "patent US8791258B2",
  "about": "“Pro-fluorescent probes” (The Regents of the University of California, priority 2008, dated 2014)",
  "key": {"[1]": {"assay": "Absorption and emission properties, fluorescence quantum yield", "format": "physicochemical", "settings": "20 mM HEPES, pH 7; for fluorescence quantum yield Φ: by reference to fluorescein; for extinction coefficient ε at 510 nm: λabs 510 nm", "experimental": "(§1) Millipore water was used to prepare all aqueous solutions. All spectroscopic measurements were performed in 20 mM HEPES buffer, pH 7. Absorption spectra were recorded using a Varian Cary 50 spectrophotometer (Walnut Creek, Calif.). Fluorescence spectra were recorded using a Photon Technology International Quanta Master 4 L-format scanning spectrofluorometer (Lawrenceville, N.J.) equipped with an LPS-220B 75-W xenon lamp and power supply, A-1010B lamp housing with integrated igniter, switchable 814 photon-counting/analog photomultiplier detection unit, and MD5020 motor driver. Samples for absorption and fluorescence measurements were contained in 1-cm×1-cm quartz cuvettes (1.4- or 3.5-mL volume, Starna, Atascadero, Calif.).\nas §1, with “recorded on” for “recorded using”, “Creek, Calif.) and fluorescence” for “Creek, Calif.). Fluorescence”, “and emission” for “and fluorescence”, “cuvettes (1.5-mL” for “cuvettes (1.4- or 3.5-mL”, “Calif.). Fluorescence quantum yields were determined by reference to fluorescein in 0.1M NaOH (Φ=0.95).” for “Calif.).”"}, "HeLa cells": {"tested_on": "HeLa cells", "format": "cell-based", "settings": "5 μM probe; 50 nM MitoTracker Deep Red, 500 nM LysoTracker Red", "experimental": "100 μM H2O2 was then added to one of the petri dishes. At 20 minutes, 50 nM MitoTracker Deep Red, 500 nM Lysotracker Red, and 1 μM Hoechst 33342 were added to both dishes. After an additional 20 minutes (40 minute stimulation total), the two coverslips were put in a single, new petri dish filled with fresh DPBS and confocal images were taken (3.2 μsec pixel time, 100% laser power for 514 line, 4.1% laser power for the 633 line, 26% laser power for the 543 line, scanned using 12-bit multi-track scan mode using a constant receiver gain). Shown above are signals from MitoPY1 (a), MitoTracker Deep Red (b), LysoTracker Red (c), an overlay of MitoTracker Deep Red and MitoPY1 (d), Hoechst (e), and a brightfield image (f) of cells not treated with H2O2, as well as signals from MitoPY1 (g), MitoTracker Deep Red (h), LysoTracker Red (i), an overlay of MitoTracker Deep Red and MitoPY1 (j), Hoechst (k), and a brightfield image (l) of cells treated with H2O2. A 20 μm scale bar shown for all images.\nHeLa cells incubated with 5 μM MitoPY1 for 60 min at 37° C. and imaged with MitoPY1 (a), MitoTracker Red and Hoechst (overlay, b), and MitoPY1 with MitoTracker Red (overlay, c). HeLa cells incubated with 5 μM MitoPY1 for 60 min at 37° C. with 100 μM H2O2 added for the final 40 min and imaged with MitoPY1 (d), MitoTracker Red and Hoechst (overlay, e), MitoPY1 and MitoTracker Red (overlay, f), and brightfield (g) with 20 μm scale bar. HeLa cells incubated with 5 μM MitoPY1 for 60 min at 37° C. and imaged with MitoPY1 (h), MitoTracker Red and Hoechst (overlay, i), and MitoPY1 with MitoTracker Red (overlay, j). HeLa cells incubated for 24 h with 1 mM paraquat, then washed and incubated with 5 μM MitoPY1 for 60 min at 37° C. and imaged with MitoPY1 (k), MitoTracker Red and Hoechst (overlay, l), MitoPY1 and MitoTracker Red (overlay, m), and brightfield (n) with 20 μm scale bar.\nHEK293 cells were cultured in DMEM (Invitrogen) supplemented with 10% fetal bovine serum (FBS, Hyclone) and glutamine (2 mM). CHO.K1 cells were cultured in DMEM with F-12 supplements, glutamax (Invitrogen), and 5% FBS. Cos-7 cells were cultured in DMEM with high glucose, glutamax, 10% FBS, and non-essential amino acids (Invitrogen). HeLa cells were cultured in DMEM with high glucose, glutamax, and 10% FBS. Two days before imaging, cells were passaged and plated on 18-mm glass coverslips. For all experiments, solutions of dyes (from 5 mM stocks in DMSO) were made in DBPS with calcium chloride and magnesium chloride (Sigma). H2O2 was added by bath application to the medium from a 100 mM aqueous stock. For paraquat treatment, HeLa cells were cultured as described above. One day prior to imaging, 1 mM paraquat was added to cells from a 0.5 M stock solution in water. An equal amount of water was added to control cells at the same time. Cells were then incubated at 37° C., 5% CO2. After 24 hours, the media was exchanged for DPBS with 5 μM dye and incubated for 1 hour.\nConfocal fluorescence imaging studies were performed with a Zeiss LSM510 NLO Axiovert 200 laser scanning microscope and a 63× Achroplan IR water-immersion objective lens. Excitation of PY-loaded cells at 510 nm was carried out with an Ar laser and emission was collected using a META detector between 527-580 nm. MitoTracker Deep Red was excited with a 633-nm line and emission was collected between 666-698 nm. LysoTracker Red was excited with a 543-nm line and emission was collected between 580-644 nm. Excitation of Hoechst 33342 was carried out using a MaiTai two-photon laser at 780-nm pulses (mode-locked Ti:sapphire laser, Tsunami Spectra Physics) and emission was collected between 452-537 nm. Image analysis was performed in Adobe Photoshop.\nMitoPY1 was tested for its ability to both target the mitochondria and respond to H2O2 in living biological systems. […] Again, co-staining with MitoTracker confirms that the dye is retained in the mitochondria and detects localized rises in H2O2 concentrations."}, "[2]": {"settings": "cited from earlier work"}, "[3]": {"assay": "Fluorescence response to various ROS (H2O2 selectivity)", "settings": "20 mM HEPES, pH 7, 25° C.", "experimental": "(§2) FIG. 7 is the fluorescence response of 5 μM PF1 to various ROS (10 mM O2^−, 100 μM for all other ROS). .OH and .Ot-Bu were generated by reaction of Fe^2+ with H2O2 or tert-butyl hydroperoxide (TBHP), respectively. NO was delivered using S-nitrosocysteine (SNOC). Spectra were acquired in 20 mM HEPES, pH 7, and all data were obtained after incubation with the appropriate ROS at 25° C. for 1 h. Collected emission was integrated between 460 and 700 nm (λexc=450 nm).\nFIG. 8 is the fluorescence response of 5 μM PR1 to various ROS (10 mM O2^−, 100 μM for all other ROS). .OH and .O^tBu were generated by reaction of Fe^2+ with H2O2 or tert-butyl hydroperoxide (TBHP), respectively. NO was delivered using S-nitrosocysteine (SNOC). Spectra were acquired in 20 mM HEPES, pH 7, and all data were obtained after incubation with the appropriate ROS at 25° C. for 30 min. Collected emission was integrated between 570 and 800 nm (λexc=560 nm).\nas §2, with “FIG. 9” for “FIG. 7”, “of 10” for “of 5”, “μM PX1” for “μM PF1”, “between 370” for “between 460”, “and 600” for “and 700”, “nm (λexc=350” for “nm (λexc=450”\nas §1\nFIG. 7, FIG. 8 and FIG. 9 compare the relative reactivities of boronate-based PF1, PR1, and PX1, respectively, toward various ROS."}, "HEK cells": {"tested_on": "HEK cells", "assay": "Confocal and two-photon fluorescence imaging of H2O2 in live HEK cells", "experimental": "(a) Fluorescence image of HEK cells incubated with 5 μM PF1 for 5 min at 25° C. (b) Fluorescence image of PF1-stained HEK cells treated with 100 μM H2O2 for 11 min at 25° C. Excitation was provided at 488 nm, and emission was collected in a window from 505 to 580 nm. Scale bar=27 μm.\n(a) Fluorescence image of HEK cells incubated with 10 μM PR1 for 10 min at 25° C. (b) Fluorescence image of PR1-stained HEK cells treated with 100 μM H2O2 for 30 min at 25° C. Excitation was provided at 543 nm, and emission was collected in a window from 548 to 644 nm. Scale bar=18 μm.\n(a) Fluorescence image of HEK cells incubated with 10 μM PX1 for 2-3 min at 25° C. (b) Fluorescence image of PX1-stained HEK cells treated with 100 μM H2O2 for 30 min at 25° C. Two-photon excitation was provided at 704 nm, and emission was collected in a window from 420 to 500 nm. Scale bar=18 μm.\nHEK 293T cells were cultured in Dulbecco's Modified Eagle Medium (DMEM, Invitrogen, Carlsbad, Calif.) supplemented with 10% Fetal Bovine Serum (FBS, Invitrogen), glutamine (2 mM), and penicillin/streptomycin (50 μg/ml, Invitrogen). One day before imaging, cells were passed and plated on 18-mm glass coverslips coated with poly-L-lysine (50 μg/ml, Sigma, St. Louis, Mo.). Immediately before the experiments, cells were washed with PBS buffer, incubated with the probe in PBS, and imaged.\nConfocal fluorescence imaging was performed with a Zeiss LSM510 META laser scanning microscope containing an Axioplan 2 MOT upright microscope and a 40× water-immersion objective lens. Excitation of PF1-loaded cells at 488 nm was carried out with an argon ion laser, and emission was Collected in a window from 505 nm to 580 nm using a META detection system. Excitation of PR1-loaded cells at 543 nm was carried out with a HeNe laser, and emission was collected in a window from 548 nm to 644 nm using a META detector. PF1 or PR1 were incubated with live cell samples for 5 to 10 min. Addition of H2O2 (10 to 100 μM) to cell samples was performed directly on the microscope stage by bath application to the media.\nTwo-photon fluorescence imaging of PX1 was carried out using an inverted Zeiss LSM510 Axiovert 200M microscope with a NeoFLUAR 40×/1.3 NA oil-immersion objective lens. Samples were excited by 704-nm pulses from a mode-locked Ti:Sapphire laser (Tsunami, SpectraPhysics, 120-150 fs pulse width, 80 MHz repetition rate). The emission light was filtered with a 80-nm wide bandpass filter centered at 460 nm (460BP40, Chroma) and detected with the non-descanned detector (NDD) of the LSM510."}},
  "data": [
    {"smiles": "CC(=O)N1CCN(c2ccc3c(c2)Oc2cc(B4OC(C)(C)C(C)(C)O4)ccc2C32OC(=O)c3ccccc32)CC1", "note": "(centres unmarked) [ContPY1]", "values": [
      {"measurement": "fluorescence quantum yield Φ", "setting": "[1]", "result": 0.018},
      {"measurement": "extinction coefficient ε at 515 nm of the corresponding rhodol formed with H2O2", "setting": "[1]; after reaction with H2O2, 515 nm", "result": "38,200 M^−1 cm^−1"},
      {"measurement": "fluorescence quantum yield Φ of the corresponding rhodol formed with H2O2", "setting": "[1]; after reaction with H2O2, λem 543 nm", "result": 0.388},
      {"measurement": "extinction coefficient ε at 404 nm", "setting": "[1]; λabs 404 nm", "result": "4,100 M^−1 cm^−1"},
      {"measurement": "extinction coefficient ε at 490 nm", "setting": "[1]; λabs 490 nm", "result": "15,600 M^−1 cm^−1"},
      {"measurement": "extinction coefficient ε at 510 nm", "setting": "[1]", "result": "16,130 M^−1 cm^−1"},
      {"measurement": "subcellular localization (co-staining with MitoTracker Deep Red, LysoTracker Red)", "setting": "HeLa cells", "result": "only MitoPY1 targets the mitochondria"}
    ]},
    {"smiles": "O=C(O)c1ccccc1C1c2cc(Cl)c(O)cc2Oc2cc(O)c(Cl)cc21", "note": "[DCFH, 2′,7′-dichlorodihydrofluorescein]", "values": [
      {"measurement": "fluorescence increase by reaction with .OH or peroxynitrite (ONOO−)", "setting": "[2]; .OH or ONOO−", "result": "ca. 7000 fold"},
      {"measurement": "fluorescence increase upon addition of H2O2, previously reported probes", "setting": "[2]; H2O2", "result": 190, "unit": "fold"},
      {"measurement": "fluorescence increase with NO", "setting": "[2]; NO", "result": 150, "unit": "fold"},
      {"measurement": "fluorescence increase with O2−", "setting": "[2]; O2−", "result": 67, "unit": "fold"},
      {"measurement": "fluorescence increase upon light-induced autoxidation", "setting": "[2]; light-induced autoxidation", "result": 2000, "unit": "fold"}
    ]},
    {"smiles": "O=C1OC2(c3ccc(O)cc3Oc3cc(N4CCN(CCCC[P+](c5ccccc5)(c5ccccc5)c5ccccc5)CC4)ccc32)c2ccccc21", "note": "(centres unmarked) [MitoPY1ox]", "values": [
      {"measurement": "fluorescence quantum yield Φ", "setting": "[1]", "result": 0.405},
      {"measurement": "extinction coefficient ε at 510 nm", "setting": "[1]", "result": "22,300 M^−1 cm^−1"},
      {"measurement": "subcellular localization (co-staining with MitoTracker Deep Red, LysoTracker Red)", "setting": "HeLa cells", "result": "only MitoPY1 targets the mitochondria"}
    ]},
    {"smiles": "CC1(C)OB(c2ccc3c(c2)Oc2cc(B4OC(C)(C)C(C)(C)O4)ccc2N3)OC1(C)C", "note": "[PR1, 3,7-Bis(pinacolatoboron)phenoxazine]", "values": [
      {"measurement": "higher response for H2O2 over .OH", "setting": "[3]; 100 μM ROS, .OH from Fe2+ with H2O2", "result": "> 200", "unit": "fold"},
      {"measurement": "higher response for H2O2 over .OtBu", "setting": "[3]; 100 μM ROS, .OtBu from Fe2+ with TBHP", "result": "> 200", "unit": "fold"},
      {"measurement": "higher response for H2O2 over NO", "setting": "[3]; 100 μM ROS, NO delivered using SNOC", "result": "> 200", "unit": "fold"},
      {"measurement": "higher response for H2O2 over O2−", "setting": "[3]; 10 mM O2−, 100 μM H2O2", "result": "> 1000", "unit": "fold"},
      {"measurement": "intracellular background fluorescence of probe-loaded cells before H2O2", "setting": "HEK cells; 5-10 μM probe, 2-10 min at 25° C.", "result": "virtually no background fluorescence"},
      {"measurement": "cell viability during imaging", "setting": "HEK cells; after probe incubation and H2O2 treatment, brightfield", "result": "cells are viable throughout the experiments"},
      {"measurement": "membrane permeability / cell entry", "setting": "HEK cells; live HEK cells", "result": "membrane-permeable"},
      {"measurement": "intracellular fluorescence after addition of H2O2", "setting": "HEK cells; probe-loaded cells, 10-100 μM H2O2", "result": "Striking increases in intracellular red fluorescence"}
    ]}
  ]
}
